Patent publication EP4745138A1, “THIO-GLUTARIMIDO ISOINDOLINONE DERIVATIVE, BIFUNCTIONAL PROTEIN DEGRADER CONTAINING SAME, AND USES THEREOF” (Gluetacs Therapeutics (Shanghai) Co., Ltd., priority 2023, dated 2025)

Biological target: T1, human Cereblon WT GST-tagged protein (Homo sapiens, UniProt Q96SW2)
T1 construct: purchased CISBIO 64BDCRBNPEH
Experiment: CRBN-binding affinity, HTRF (CEREBLON BINDING kit)
Details: for inhibition at 0.5 µM: read-out: Inhibition Rate at 0.5 µM (%); for inhibition at 2 µM: read-out: Inhibition Rate at 2 µM (%)
Source text: The CEREBLON BINDING kits (specification: 10,000 tests; product number: Catalog # 64BDCRBNPEH; CISBIO company) was used to determine the CRBN binding ability of the compounds to be tested through a HTRF method (homogeneous time-resolved fluorescence). The specific methods are as follows: • 1. […] Specifically, diluent #9 (1X) solution was used as the diluent, and multiple concentration gradients were set. […] Into the 96-well plate, the diluted test compounds and corresponding detection reagents were added, resulting in final test compound concentrations of 2 µM and 0.5 µM, respectively. […] Then, 2.5 µL of human Cereblon WT GST-tagged protein solution was added to each well. Finally, 5 µL of the thoroughly mixed Thalidomide-Re reagent and GST Eu antibody working solution were added to each of the aforementioned wells. […] The blank control wells were sequentially added with 2.5 µL of diluent #9 (1X) solution, 2.5 µL of PROTAC binding buffer, and 5 µL of thoroughly mixed Thalidomide-Re reagent and GST Eu antibody working solution. • 4.

T1 sequence (Q96SW2 whole entry): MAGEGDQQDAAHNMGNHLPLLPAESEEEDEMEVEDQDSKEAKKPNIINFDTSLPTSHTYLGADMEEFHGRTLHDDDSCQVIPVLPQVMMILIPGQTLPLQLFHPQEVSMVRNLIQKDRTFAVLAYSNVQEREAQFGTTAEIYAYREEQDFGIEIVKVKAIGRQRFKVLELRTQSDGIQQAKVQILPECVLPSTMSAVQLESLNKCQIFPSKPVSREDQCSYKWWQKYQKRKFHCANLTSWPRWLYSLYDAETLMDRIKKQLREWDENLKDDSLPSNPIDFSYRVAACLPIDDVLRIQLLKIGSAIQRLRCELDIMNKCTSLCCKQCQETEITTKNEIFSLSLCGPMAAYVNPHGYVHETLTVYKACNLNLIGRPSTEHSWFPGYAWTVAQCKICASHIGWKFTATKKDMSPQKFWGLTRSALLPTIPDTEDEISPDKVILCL

Row | Compound | inhibition at 0.5 µM [%] | inhibition at 2 µM [%]
1 | COc1cc(N2CCC(N3CCN(C)CC3)CC2)ccc1Nc1ncc(Cl)c(Nc2ccccc2P(C)(C)=O)n1 [Brigatinib, reference compound] | 0 to 10 | 10 to 20
2 | COc1cc(N2CCC(N3CCN(Cc4cccc5c4CN(C4CCC(=O)NC4=O)C5=S)CC3)CC2)c(C)cc1Nc1ncc(Br)c(Nc2ccc3nccnc3c2P(C)(C)=O)n1 (centres unmarked) [GT-05058, 3-(4-((4-(1-(4-((5-bromo-4-((5-(dimethylphosphoryl)quinoxalin-6-yl)amino)pyrimidin-2-yl)amino)-5-methoxy-2-methylphenyl)piperidin-4-yl)piperazin-1-yl)methyl)-1-thioxoisoindolin-2-yl)piperidine-2,6-dione] | 40 to 53 | 80 to 100
3 | Nc1ncnc2c1c(-c1ccc(Oc3ccccc3)cc1)nn2C1CCN(Cc2cccc3c2CN(C2CCC(=O)NC2=O)C3=S)CC1 (centres unmarked) [GT-05074, 3-(4-((4-(4-amino-3-(4-phenoxyphenyl)-1H-pyrazolo[3,4-d]pyrimidin-1-yl)piperidin-1-yl)methyl)-1-thioxoisoindolin-2-yl)piperidine-2,6-dione] | 40 to 53 | 60 to 80
4 | CC(C)Nc1cc(-n2ccc3cc(C#N)cnc32)ncc1C(=O)NC1CCN(Cc2ccc3c(c2)CN(C2CCC(=O)NC2=O)C3=S)CC1 (centres unmarked) [GT-05294, 6-(5-cyano-1H-pyrrolo[2,3-b]pyridin-1-yl)-N-(1-((2-(2,6-dioxopiperidin-3-yl)-1-thioxoisoindolin-5-yl)methyl)piperidin-4-yl)-4-(isopropylamino)nicotinamide] | 60 to 80 | 80 to 100
5 | COc1cc2nn(C3CCN(Cc4ccc5c(c4)CN(C4CCC(=O)NC4=O)C5=S)CC3)cc2cc1NC(=O)c1cccc(C(F)(F)F)c1 (centres unmarked) [GT-05295, N-(2-(1-((2-(2,6-dioxopiperidin-3-yl)-1-thioxoisoindolin-5-yl)methyl)piperidin-4-yl)-6-methoxy-2H-indazol-5-yl)-3-(trifluoromethyl)benzamide] | 60 to 80 | 80 to 100
6 | CC(C)(O)c1cc2nc(C3CCN(Cc4ccc5c(c4)CN(C4CCC(=O)NC4=O)C5=S)CC3)sc2cc1NC(=O)c1cccc(C(F)(F)F)n1 (centres unmarked) [GT-05298, N-(2-(1-((2-(2,6-dioxopiperidin-3-yl)-1-thioxoisoindolin-5-yl)methyl)piperidin-4-yl)-5-(2-hydroxypropan-2-yl)benzo[d]thiazol-6-yl)-6-(trifluoromethyl)picolinamide] | 80 to 100 | 80 to 100
7 | CC(C)(O)c1cc2nc(C3CCN(Cc4ccc5c(c4)CN(C4CCC(=O)NC4=O)C5=S)CC3)oc2cc1NC(=O)c1cccc(C(F)(F)F)n1 (centres unmarked) [GT-05320, N-(2-(1-((2-(2,6-dioxopiperidin-3-yl)-1-thioxoisoindolin-5-yl)methyl)piperidin-4-yl)-5-(2-hydroxypropan-2-yl)benzo[d]oxazol-6-yl)-6-(trifluoromethyl)picolinamide] | 80 to 100 | 80 to 100
8 | Nc1nnc(-c2cc(F)ccc2O)cc1N1CC2CCC(C1)N2Cc1ccc2c(c1)CN(C1CCC(=O)NC1=O)C2=S (centres unmarked) [GT-08713, 3-(5-((3-(3-amino-6-(5-fluoro-2-hydroxyphenyl)pyridazin-4-yl)-3,8-diazabicyclo[3.2.1]octan-8-yl)methyl)-1-thioxoisoindolin-2-yl)piperidine-2,6-dione] | 40 to 53 | 80 to 100
9 | N#CC1(CNc2nc(-c3cc(NC4CCN(Cc5ccc6c(c5)C(=S)N(C5CCC(=O)NC5=O)C6)CC4)ncc3Cl)cs2)CCOCC1 (centres unmarked) [GT-08750, 4-(((4-(5-chloro-2-((1-((2-(2,6-dioxopiperidin-3-yl)-3-thioxoisoindolin-5-yl)methyl)piperidin-4-yl)amino)pyridin-4-yl)thiazol-2-yl)amino)methyl)tetrahy dro-2H-pyran-4-carbonitrile] | 60 to 80 | 80 to 100
10 | COC1CCN(c2nccc(Nc3cc4c(cn3)c(N3CCN(Cc5cccc6c5CN(C5CCC(=O)NC5=O)C6=S)CC3)nn4C(C)C)n2)CC1 (centres unmarked) [GT-08759, 3-(4-((4-(1-isopropyl-6-((2-(4-methoxypiperidin-1-yl)pyrimidin-4-yl)amino)-1H-pyrazolo[4,3-c]pyridin-3-yl)piperazin-1-yl)methyl)-1-thioxoisoindolin-2-yl)piperidine-2,6-dione] | 30 to 40 | 60 to 80
11 | O=C1CCC(N2Cc3c(CN4CCN(c5ncc(C(=O)Nc6ccc(OC(F)(F)Cl)cc6)cc5-c5cc[nH]n5)CC4)cccc3C2=S)C(=O)N1 (centres unmarked) [GT-08775, N-(4-(chlorodifluoromethoxy)phenyl)-6-(4-((2-(2,6-dioxopiperidin-3-yl)-1-thioxoisoindolin-4-yl)methyl)piperazin-1-yl)-5-(1H-pyrazol-3-yl)nicotinamide] | 30 to 40 | 60 to 80
12 | Nc1nnc(-c2cc(F)ccc2O)cc1N1CCN(Cc2cccc3c2CN(C2CCC(=O)NC2=O)C3=S)CC1 (centres unmarked) [GT-08788, 3-(4-((4-(3-amino-6-(5-fluoro-2-hydroxyphenyl)pyridazin-4-yl)piperazin-1-yl)methyl)-1-thioxoisoindolin-2-yl)piperidine-2,6-dione] | 40 to 53 | 80 to 100
13 | Nc1nnc(-c2cc(F)ccc2O)cc1N1CC2CCC(C1)N2Cc1cccc2c1CN(C1CCC(=O)NC1=O)C2=S (centres unmarked) [GT-08790, 3-(4-((3-(3-amino-6-(5-fluoro-2-hydroxyphenyl)pyridazin-4-yl)-3,8-diazabicyclo[3.2.1]octan-8-yl)methyl)-1-thioxoisoindolin-2-yl)piperidine-2,6-dione] | 60 to 80 | 80 to 100
14 | Nc1nnc(-c2cc(F)ccc2O)cc1N1CC2CCC(C1)N2Cc1ccc2c(c1)C(=S)N(C1CCC(=O)NC1=O)C2 (centres unmarked) [GT-08791, 3-(6-((3-(3-amino-6-(5-fluoro-2-hydroxyphenyl)pyridazin-4-yl)-3,8-diazabicyclo[3.2.1]octan-8-yl)methyl)-1-thioxoisoindolin-2-yl)piperidine-2,6-dione] | 40 to 53 | 80 to 100
15 | CCCc1cc(C)[nH]c(=O)c1CNC(=O)c1cc(-c2ccc(N3CCN(Cc4ccc5c(c4)CN(C4CCC(=O)NC4=O)C5=S)CC3)nc2)cc2c1cnn2C(C)C (centres unmarked) [GT-08885, 6-(6-(4-((2-(2,6-dioxopiperidin-3-yl)-1-thioxoisoindolin-5-yl)methyl)piperazin-1-yl)pyridin-3-yl)-1-isopropyl-N-((6-methyl-2-oxo-4-propyl-1,2-dihydropyridin-3-yl)methyl)-1H-indazole-4-carboxamide] | 40 to 53 | 60 to 80

Next, values leading:

Row | inhibition at 0.5 µM [%] | inhibition at 2 µM [%] | Compound
16 | 60 to 80 | 80 to 100 | Nc1nnc(-c2cc(F)ccc2O)cc1N1CCN(Cc2ccc3c(c2)CN(C2CCC(=O)NC2=O)C3=S)CC1 (centres unmarked) [GT-08712, 3-(5-((4-(3-amino-6-(5-fluoro-2-hydroxyphenyl)pyridazin-4-yl)piperazin-1-yl)methyl)-1-thioxoisoindolin-2-yl)piperidine-2,6-dione]
17 | 53 to 60 | 80 to 100 | O=C1CCC(N2Cc3cc(CN4CCN(c5ncc(C(=O)Nc6ccc(OC(F)(F)Cl)cc6)cc5-c5cc[nH]n5)CC4)ccc3C2=S)C(=O)N1 (centres unmarked) [GT-08769, N-(4-(chlorodifluoromethoxy)phenyl)-6-(4-((2-(2,6-dioxopiperidin-3-yl)-1-thioxoisoindolin-5-yl)methyl)piperazin-1-yl)-5-(1H-pyrazol-3-yl)nicotinamide]
18 | 60 to 80 | 80 to 100 | Nc1nnc(-c2ccccc2O)cc1N1CCN(Cc2ccc3c(c2)CN(C2CCC(=O)NC2=O)C3=S)CC1 (centres unmarked) [GT-08785, 3-(5-((4-(3-amino-6-(2-hydroxyphenyl)pyridazin-4-yl)piperazin-1-yl)methyl)-1-thioxoisoindolin-2-yl)piperidine-2,6-dione]
19 | 60 to 80 | 80 to 100 | Nc1nnc(-c2cc(F)ccc2O)cc1N1CCN(Cc2ccc3c(c2)C(=S)N(C2CCC(=O)NC2=O)C3)CC1 (centres unmarked) [GT-08789, 3-(6-((4-(3-amino-6-(5-fluoro-2-hydroxyphenyl)pyridazin-4-yl)piperazin-1-yl)methyl)-1-thioxoisoindolin-2-yl)piperidine-2,6-dione]
20 | 53 to 60 | 60 to 80 | Cc1cc(S(=O)(=O)N2CCN(Cc3ccc4c(c3)C(=S)N(C3CCC(=O)NC3=O)C4)CC2)ccc1Nc1ncc(Br)c(Nc2cccc(F)c2C(N)=O)n1 (centres unmarked) [GT-08794, 2-((5-bromo-2-((4-((4-((2-(2,6-dioxopiperidin-3-yl)-3-thioxoisoindolin-5-yl)methyl)piperazin-1-yl)sulfonyl)-2-methylphenyl)amino)pyrimidin-4-yl)amino)-6-fluorobenzamide]
21 | 53 to 60 | 60 to 80 | Nc1nc(Nc2ccc(S(=O)(=O)N3CCN(Cc4cccc5c4CN(C4CCC(=O)NC4=O)C5=S)CC3)cc2)nn1C(=O)c1c(F)cccc1F (centres unmarked) [GT-08795, 3-(4-((4-((4-((5-amino-1-(2,6-difluorobenzoyl)-1H-1,2,4-triazol-3-yl)amino)phenyl)sulfony 1)piperazin-1-yl)methyl)-1-thioxoisoindolin-2-yl)piperidine-2,6-dione]
22 | 80 to 100 | 80 to 100 | Nc1nc(Nc2ccc(S(=O)(=O)N3CCN(Cc4ccc5c(c4)C(=S)N(C4CCC(=O)NC4=O)C5)CC3)cc2)nn1C(=O)c1c(F)cccc1F (centres unmarked) [GT-08796, 3-(6-((4-((4-((5-amino-1-(2,6-difluorobenzoyl)-1H-1,2,4-triazol-3-yl)amino)phenyl)sulfonyl)piperazin-1-yl)methyl)-1-thioxoisoindolin-2-yl)piperidine-2,6-dione]
